A word on the IC50: it is the midpoint of a concentration-inhibition curve. As usually defined, the inhibition is the relative decrease from the control value, in per cent.

Like-named read-outs stand apart in the source and are kept apart here. *1 amine or outer side, *2 acyl side, *3 side chain or, on linkers, in order; H or OH if unused. Where a SMILES comes first, the peptide text is derived from it. Bridges are numbered along the chain shown (N, C = ends). NH(CH2)4NH = C(CCN[*:2])CN[*:1]

For one data set, the target named is T1, PKA (Homo sapiens, UniProt P17612).
T1 construct: endogenous in cells; host or cells: SK-BR-3
As to the kind of experiment: PKA activity of BIG3 immunoprecipitates from SK-BR-3 cells. In kind it is cell-based.

In a further data set the test system is PP1Cα. As to the kind of experiment: PP1Cα activity of BIG3 immunoprecipitates from SK-BR-3 cells. It counts as cell-based, human. The following applies: SK-BR-3, 24 hours; 10 μM H-89, 100 μg/mL trastuzumab, 10 nM lapatinib.
The subject of a further data set is BIG3 phosphorylation. As to the kind of experiment: BIG3 phosphorylation (Ser305, Ser1208) in SK-BR-3 and KPL-4 cells, immunoblot. It counts as cell-based, human. As to conditions: SK-BR-3 and KPL-4, 30 minutes; 10 μM H-89, 100 μg/mL trastuzumab, 10 nM lapatinib.
The target of the next data set is T2, chymotrypsin (Bos taurus, UniProt P00766).
T2 construct: purchased Sigma C7761
In words: Chymotrypsin resistance (HPLC). In kind it is in vitro ADME. The following applies: 1 μg chymotrypsin, 5 μg peptide, 37° C., 24 hours. How it is done:
The chromatograms for double stapled ERAP No. 45 (A) and double stapled ERAP No. 46 (B), when a double stapled ERAP was reacted with chymotrypsin at 37° C. for 24 hours, are shown. In the experiment, the double stapled ERAP-chymotrypsin reaction solutions were subjected to high performance liquid chromatography (reverse-phase column, 0.3 mL/min flow rate, gradient elution (solution A: 0.1% trifluoroacetic acid; solution B: 0.1% trifluoroacetic acid/acetonitrile, A/B=90/10 (0-20 min) to 40/60 (20-80 min))), and detection was carried out by UV at 210 nm.
Chymotrypsin resistance was analyzed by adding 1 μg of chymotrypsin (#C7761, Sigma) and 5 μg of double stapled ERAP in a buffer (50 mM Tris-HCl; pH 8.0, 10 mM CaCl2), allowing this to react at 37° C. for 24 hours, and then subjecting the whole amount to high-performance liquid chromatography (HPLC). For the HPLC, a reverse-phase column (Inertsil Peptides C18 250×3.0 mm I.D.; GL Science, Tokyo, Japan) was used, gradient elution was performed using Solution A (0.1% trifluoroacetic acid) and Solution B (0.1% trifluoroacetic acid/acetonitrile) (A/B=90/10 (0-20 min), 90/10-40/60 (20-80 min)) at a flow rate of 0.3 mL/min, and a chromatogram for each double stapled ERAP was obtained by UV detection at 210 nm.

Another data set deals with BT-20. It counts as cell-based, human. As to conditions: 96 h. On the procedure:
(§1) For the single stERAP and double stERAP #46, peptides were added at a total of eleven concentrations prepared by three-fold serial dilution starting from 20 μM. For the double stERAP #45, peptides were added at a total of eight concentrations prepared by two-fold serial dilation starting from 50 μM. The number of viable cells were measured 96 hours after the peptide addition, and relative values thereof were calculated based on the negative control cells without peptide addition and plotted. Experiments using double stERAP #45 on the SW982 cell line were not carried out.
(§2) MDA-MB-231 cells and SW982 cells were cultured using Leibovitz's L-15 medium (Thermo Fisher Scientific) at 37° C. without CO2 concentration control. All media were used by supplementing 10% FBS (Thermo Fisher Scientific) and a 1% antibiotic/antimycotic solution (Wako Pure Chemical, Osaka, Japan).
(§3) SK-BR-3 cells, BT-20 cells, and MDA-MB-231 cells were seeded into 48-well plates at 1×10^4 cells/200 μL in each well, and SW982 cells were seeded into 48-well plates at 0.5×10^4 cells/200 μL in each well. 48 hours later, the medium in each well was exchanged to a medium supplemented with a peptide (single stERAP and double stERAP #46: three-fold serial dilution from 20 μM, double stERAP #45: two-fold serial dilution starting from 50 μM), and after culturing for another 96 hours, the level of cell growth was measured using the Cell Counting Kit-8 (Dojindo, Kumamoto, Japan). Data were obtained from three independent experiments, a graph (mean±standard deviation) was produced using a graphing and data analyzing software SigmaPlot (Systat Software, San Jose, Calif., USA), and the 50% inhibition concentration (IC50) of the peptide against cell growth was calculated.

A further data set has as its system MDA-MB-231. It counts as cell-based, human. As to conditions: 96 h. On the procedure: as §1, §2, §3
The subject of another data set is SK-BR-3. In kind it is cell-based, human. The following applies: 96 h. On the procedure:
as §1, §2, §3

In another data set the test system is MCF-7 cells. In kind it is cell-based, human. The following applies: for inhibition rate on estrogen-dependent cell growth: 96 h.
In a further data set the test system is SW982. In kind it is cell-based, human. As to conditions: 96 h. How it is done:
as §1, §2, §3

A further data set has as its target T3, BIG3-PHB2 interaction (Homo sapiens, UniProt Q99623).
T3 construct: endogenous in cells; host or cells: MCF-7
In words: Inhibition of BIG3-PHB2 interaction in MCF-7 cells (immunoprecipitation, Western blotting). It counts as cell-based. As to conditions: MCF7, 96 hours, 10 nM estrogen, read-out: inhibition rate of BIG3-PHB2 binding. On the procedure:
(A, B) Inhibitory effect of double stapled ERAP No. 46 on BIG3-PHB2 interaction in MCF-7 cells was evaluated by Western blotting. […] Then, the cells were lysed, immunoprecipitation was performed using an anti-BIG3 antibody, and immunoblot analyses were performed using the antibodies indicated in the drawing. The binding inhibition rates are expressed as proportions to the band area for PHB2 in untreated cells which is set as 100.
For immunoblot analyses, after performing SDS-PAGE, the membranes blotted with proteins were blocked with 4% BlockAce solution (Dainippon Pharmaceutical, Osaka, Japan) for 3 hours and then incubated to react for 12 hours with antibodies against BIG3 (1:1,000) and PHB2 (1:1,000) (Abcam, Cambridge, UK). After allowing interaction with HRP-labeled secondary antibodies (anti-rat IgG-HRP for BIG3, 1:5,000; and anti-rabbit IgG-HRP for PHB2, 1:1,000) (Santa Cruz Biotechnology, Dallas, Tex., USA) for 1 hour, the blots were developed with the Enhanced Chemiluminescence (ECL) system (GE Healthcare, Buckinghamshire, UK) and scanned using the Image Reader LAS-3000 mini (Fujifilm, Tokyo, Japan). […]

For data set [1], the system named is PHB2 (Ser39) phosphorylation. In words: PHB2 (Ser39) phosphorylation in SK-BR-3 cells, immunoblot. It counts as cell-based, human. As to conditions: SK-BR-3, presence of 1 μM stERAP; 100 μg/mL trastuzumab, 10 nM lapatinib. On the technique in general: In western blotting, separated proteins are transferred to a membrane and probed.
The test system of the next data set is PKCα. In words: PKCα activity of PKCα immunoprecipitates from SK-BR-3 cells. As to conditions: SK-BR-3, 10 nM lapatinib in the presence of stERAP, 24 hours. It counts as cell-based, human. On the procedure: (A) Immunoblots are shown which indicate that PHB2 (Ser39) is phosphorylated in a PKCα-dependent manner in a HER2-positive breast cancer cell line. SK-BR-3 cells in which PKCα expression was suppressed by the siRNA method were treated for 24 hours with 1 μM stERAP, then cell lysate thereof was subjected to immunoprecipitation using an anti-PHB2 antibody, and immunoblot analyses were performed using the antibodies shown in the drawing. (B) PKCα activity by EGFR signaling in SK-BR-3 cells is shown. SK-BR-3 cells were treated for 24 hours with 1 μM stERAP, and with 10 nM lapatinib in the presence of stERAP, cell lysates thereof were subjected to immunoprecipitation using an anti-PKCα antibody, and PKCα activities were calculated using CREBtide as a substrate. Data represent the mean±standard error of three independent experiments.
The activities of protein kinase A (PKA) and protein kinase C alpha (PKCα) were measured by reacting the immunoprecipitates of BIG3 and PKCα with a synthetic substrate CREBtide ([…]) and 0.5 mM ATP in a kinase buffer (25 mM Hepes, pH 7.2, 25 mM MgCl2, 5 mM EDTA, 5 mM EGTA, 0.25 mM DTT) at 30° C. for 30 minutes, and by using an ADP-Glo kinase assay Kit (Promega, Fitchburg, Wis., USA).

For another data set, the system named is HER2-HER3 interaction. As to the kind of experiment: HER2-HER3 interaction, immunoprecipitation with anti-HER2 antibody. It counts as cell-based, human. The following applies: SK-BR-3, 2 μM AZ3146 and 1 μM stERAP, 24 hours.
A further data set concerns HER2-Shc interaction. As to the kind of experiment: HER2-Shc interaction, immunoprecipitation with anti-HER2 antibody. It counts as cell-based, human. The following applies: SK-BR-3, 2 μM AZ3146 and 1 μM stERAP, 24 hours.

T3 sequence (Q99623 2-299 limits assumed): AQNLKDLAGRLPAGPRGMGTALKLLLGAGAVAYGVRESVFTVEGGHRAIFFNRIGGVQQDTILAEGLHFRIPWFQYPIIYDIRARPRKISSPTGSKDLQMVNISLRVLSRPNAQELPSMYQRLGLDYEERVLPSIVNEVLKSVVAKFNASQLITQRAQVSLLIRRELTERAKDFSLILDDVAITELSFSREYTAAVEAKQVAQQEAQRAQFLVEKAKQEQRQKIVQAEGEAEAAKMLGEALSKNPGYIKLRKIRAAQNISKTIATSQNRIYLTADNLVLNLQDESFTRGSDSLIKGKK

As for `O=S(=O)(NCCNC/C=C/c1ccc(Br)cc1)c1cccc2cnccc12` [H-89], the “inhibition rate for PKA activity” value against PKA (SK-BR-3, 24 hours, 10 μM H-89, 100 μg/mL trastuzumab, 10 nM lapatinib) turned out to be 100%. In addition, the “inhibition rate for PP1Cα activity” value in the data set on PP1Cα was 96%. Besides, the “suppression of BIG3 phosphorylation (Ser305 and Ser1208)” value with BIG3 phosphorylation is “nearly completely suppressed”.

As for `CSCC[C@H](NC(=O)[C@H](CCC(N)=O)NC(C)=O)C(=O)N[C@H]1CCC(=O)NCCCCNC(=O)CC[C@@H](C(=O)N[C@H]2CCC(=O)NCCCCNC(=O)CC[C@@H](C(=O)N[C@@H](CCCNC(=N)N)C(N)=O)NC(=O)[C@H](CCCNC(=N)N)NC(=O)[C@H](CC(C)C)NC(=O)[C@H](CCC(N)=O)NC2=O)NC(=O)[C@H](CC(C)C)NC(=O)[C@H](CC(=O)O)NC(=O)[C@H](CO)NC1=O` [double stapled ERAP No. 45] (Ac-QMESDLEEQLRER-NH2; linker 3-7, 8-12 via NH(CH2)4NH), at chymotrypsin, the “degradation by chymotrypsin treatment (chromatogram)” value is given as “several degradation products”. Moreover, the half-inhibitory concentration (IC50) in the data set on BT-20 stood at 8600 nM; in the data set on MDA-MB-231, 23700 nM; in the data set on SK-BR-3, 2800 nM; in the data set with MCF-7 cells it was 2320 nM. Moreover, the “inhibition rate on estrogen-dependent cell growth” value with MCF-7 cells (1 μM) came out at 21%.

Regarding `CSCC[C@H](NC(=O)[C@H](CCC(N)=O)NC(C)=O)C(=O)N[C@H]1CCC(=O)NCCCCNC(=O)CC[C@@H](C(=O)N[C@@H](CC(C)C)C(=O)N[C@@H](CCC(N)=O)C(=O)N[C@H]2CCC(=O)NCCCCNC(=O)CC[C@@H](C(N)=O)NC(=O)[C@H](CCCNC(=N)N)NC(=O)[C@H](CCC(N)=O)NC(=O)[C@H](CCCNC(=N)N)NC2=O)NC(=O)[C@H](CC(C)C)NC(=O)[C@H](CC(=O)O)NC(=O)[C@H](CO)NC1=O` [double stapled ERAP No. 46] (Ac-QMESDLELQERQRE-NH2; linker 3-7, 10-14 via NH(CH2)4NH), at chymotrypsin, the “degradation by chymotrypsin treatment (chromatogram)” value is recorded as “hardly showed its degradation”. The IC50 is 26 nM in the data set with SW982; 74 nM in the data set with BT-20; 143 nM with MDA-MB-231; 20 nM in the data set with SK-BR-3; 430 nM in the data set with MCF-7 cells. Besides, the “inhibition rate on estrogen-dependent cell growth” value in the data set with MCF-7 cells (10 μM) is recorded as 91%. In addition, on BIG3-PHB2 interaction (1 μM), the inhibition at 1 µM was 60%. Also, on BIG3-PHB2 interaction (10 μM), the inhibition at 10 µM worked out at 95%.

Consider `CS(=O)(=O)CCNCc1ccc(-c2ccc3ncnc(Nc4ccc(OCc5cccc(F)c5)c(Cl)c4)c3c2)o1` [lapatinib], for which the inhibition at 0.01 µM on PKA (SK-BR-3, read-out: inhibition rate for PKA activity) was approximately 15%. Besides, in [1], the “decrease of PHB2 (Ser39) phosphorylation” value is given as “nearly completely suppressed”. Moreover, in the data set on PP1Cα, the “inhibition rate for PP1Cα activity” value is recorded as “about 15%”. The PKCα activity inhibition result in the data set on PKCα is on record as “approximately 80%”. The “suppression of BIG3 phosphorylation (Ser305 and Ser1208)” value with BIG3 phosphorylation is on record as “not so involved in the suppression of BIG3 phosphorylation”.

For AZ3146, the “effect on stERAP inhibition of HER2-HER3 interaction” value in the data set on HER2-HER3 interaction is recorded as “nearly completely canceled the inhibitory effects”. In addition, the “effect on stERAP inhibition of HER2-Shc interaction” value in the data set on HER2-Shc interaction is on record as “nearly completely canceled the inhibitory effects”.

Values taken from patent publication US11091517B2, “Peptide derivative and pharmaceutical composition containing same” (TOKUSHIMA UNIVERSITY, priority 2017, dated 2021).
